Data published in patent US9206200B2, “N-linked lactam M1 receptor positive allosteric mogulators” (Merck Sharp & Dohme Corp., priority 2011, dated 2015).

Biological target: T1, acetylcholine muscarinic M1 receptor (Homo sapiens, UniProt P11229)
T1 construct: expressed in transfected cells; host or cells: CHOnfat cells (CHO cells with an NFAT reporter) expressing hM1, kept under Geneticin selection
T1 sequence (P11229 1-460): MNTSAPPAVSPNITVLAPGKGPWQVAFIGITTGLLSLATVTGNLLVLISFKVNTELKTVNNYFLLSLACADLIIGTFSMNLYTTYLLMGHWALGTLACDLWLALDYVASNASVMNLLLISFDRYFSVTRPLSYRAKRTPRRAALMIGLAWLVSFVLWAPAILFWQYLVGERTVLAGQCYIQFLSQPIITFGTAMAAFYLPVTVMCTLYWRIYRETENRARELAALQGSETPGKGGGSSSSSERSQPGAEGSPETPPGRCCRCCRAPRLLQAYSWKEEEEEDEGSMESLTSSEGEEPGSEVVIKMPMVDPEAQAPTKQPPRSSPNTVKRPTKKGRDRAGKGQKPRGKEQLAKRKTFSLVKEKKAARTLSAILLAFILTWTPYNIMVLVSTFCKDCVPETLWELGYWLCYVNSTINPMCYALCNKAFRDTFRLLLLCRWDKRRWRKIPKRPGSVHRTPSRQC
Test: muscarinic FLIPR assay: intracellular calcium in CHOnfat/hM1 cells, potentiation of EC20 acetylcholine
Format: cell-based
Conditions: Table 2; CHOnfat/hM1 cells, FLIPR, EC20 acetylcholine (3 nM final); read-out: M1 Pot.
Procedure, shortened: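 CHOnfat cells stably expressing human M1, Fluo-4AM-loaded, in HBSS with 20 mM HEPES, 2.5 mM probenecid, 1% BSA. Compounds preincubated 4 min (printed "4 mM") before an EC20 acetylcholine challenge (3 nM final). FLIPR intracellular Ca²⁺ signal compared with 3 nM acetylcholine alone to detect potentiation.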

CC1c2c(cc(CN3CCC(c4ccncc4)CC3)c3cccnc23)C(=O)N1C1CCCCC1O (stereo not shown) [Example 161, 8-(2-hydroxycyclohexyl)-9-methyl-5-[(4-pyridin-4-ylpiperidin-1-yl)methyl]-8,9-dihydro-7H-pyrrolo[3,4-h]quinolin-7-one] and CC1c2c(cc(CN3CCN(c4cccnc4)CC3)c3cccnc23)C(=O)N1C1CCCCC1O (stereo not shown) [Example 163, 8-(2-hydroxycyclohexyl)-9-methyl-5-[(4-pyridin-3-ylpiperazin-1-yl)methyl]-8,9-dihydro-7H-pyrrolo[3,4-h]quinolin-7-one] are within 1.5-fold of each other in EC50: 650 nM for the first, 520 nM for the second.

First: O=C1c2cc(CN3CCN(c4cccnc4)CC3)c3cccnc3c2CN1C1CCCCC1O (stereo not shown) [Example 162, 8-(2-hydroxycyclohexyl)-5-[(4-pyridin-3-ylpiperazin-1-yl)methyl]-8,9-dihydro-7H-pyrrolo[3,4-h]quinolin-7-one]
Second: O=C1c2cc(CN3CCN(c4ccccc4)CC3)c3cccnc3c2CN1C1CCCCC1O (stereo not shown) [Example 174, 8-(2-hydroxycyclohexyl)-5-[(4-phenylpiperazin-1-yl)methyl]-8,9-dihydro-7H-pyrrolo[3,4-h]quinolin-7-one]
The EC50 of the first is 1.6-fold higher: 28 nM for the first, 18 nM for the second. The second is the more potent here.

Going from CC1c2c(cc(CN3CCN(c4cccnc4)CC3)c3cccnc23)C(=O)N1C1CCCCC1O (stereo not shown) [Example 164, 8-(2-hydroxycyclohexyl)-9-methyl-5-[(4-pyridin-3-ylpiperazin-1-yl)methyl]-8,9-dihydro-7H-pyrrolo[3,4-h]quinolin-7-one] to CC1c2c(cc(CN3CCN(c4ccccc4)CC3)c3cccnc23)C(=O)N1C1CCCCC1O (stereo not shown) [Example 175, 8-(2-hydroxycyclohexyl)-9-methyl-5-[(4-phenylpiperazin-1-yl)methyl]-8,9-dihydro-7H-pyrrolo[3,4-h]quinolin-7-one], the EC50 rises from 36 nM to 490 nM (14-fold). The first is the more potent here.

Compared with O=C1c2cc(CN3CCN(c4ccccn4)CC3)c3cccnc3c2CN1C1CCCCC1O (stereo not shown) [Example 165, 8-(2-hydroxycyclohexyl)-5-[(4-pyridin-2-ylpiperazin-1-yl)methyl]-8,9-dihydro-7H-pyrrolo[3,4-h]quinolin-7-one], CC1c2c(cc(CN3CCN(c4ccccn4)CC3)c3cccnc23)C(=O)N1C1CCCCC1O (stereo not shown) [Example 166, 8-(2-hydroxycyclohexyl)-9-methyl-5-[(4-pyridin-2-ylpiperazin-1-yl)methyl]-8,9-dihydro-7H-pyrrolo[3,4-h]quinolin-7-one] is 39-fold higher in EC50: 15 nM for the first, 580 nM for the second.

Going from CC1c2c(cc(CN3CCN(c4ccccn4)CC3)c3cccnc23)C(=O)N1C1CCCCC1O (stereo not shown) [Example 167, 8-(2-hydroxycyclohexyl)-9-methyl-5-[(4-pyridin-2-ylpiperazin-1-yl)methyl]-8,9-dihydro 7H-pyrrolo[3,4-h]quinolin-7-one] to CC1c2c(cc(CN3CCN(c4ccccc4)CC3)c3cccnc23)C(=O)N1C1CCCCC1O (stereo not shown) [Example 176, 8-(2-hydroxycyclohexyl)-9-methyl-5-[(4-phenylpiperazin-1-yl)methyl]-8,9-dihydro-7H-pyrrolo[3,4-h]quinolin-7-one], the EC50 rises from 59 nM to 93 nM (1.6-fold). The first is the more potent here.

COc1ccc(N2CCN(Cc3cc4c(c5ncccc35)CN(C3CCCCC3O)C4=O)CC2)cc1 (stereo not shown) [Example 168, 8-(2-hydroxycyclohexyl)-5-{[4-(4-methoxyphenyl)piperazin-1-yl]methyl}-8,9-dihydro-7H-pyrrolo[3,4-h]quinolin-7-one] and O=C1c2cc(CN3CCN(c4ccc(F)cc4)CC3)c3cccnc3c2CN1C1CCCCC1O (stereo not shown) [Example 171, 5-{[4-(4-fluorophenyl)piperazin-1-yl]methyl}-8-(2-hydroxycyclohexyl)-8,9-dihydro-7H-pyrrolo[3,4-h]quinolin-7-one] are within 1.5-fold of each other in EC50: 24 nM for the first, 23 nM for the second.

COc1ccc(N2CCN(Cc3cc4c(c5ncccc35)C(C)N(C3CCCCC3O)C4=O)CC2)cc1 (stereo not shown) [Example 169, 8-(2-hydroxycyclohexyl)-5-{[4-(4-methoxyphenyl)piperazin-1-yl]methyl}-9-methyl-8,9-dihydro-7H-pyrrolo[3,4-h]quinolin-7-one] and CC1c2c(cc(CN3CCN(c4ccc(F)cc4)CC3)c3cccnc23)C(=O)N1C1CCCCC1O (stereo not shown) [Example 172, 5-{[4-(4-fluorophenyl)piperazin-1-yl]methyl}-8-(2-hydroxycyclohexyl)-9-methyl-8,9-dihydro-7H-pyrrolo[3,4-h]quinolin-7-one] are within 1.5-fold of each other in EC50: 590 nM for the first, 480 nM for the second.

COc1ccc(N2CCN(Cc3cc4c(c5ncccc35)C(C)N(C3CCCCC3O)C4=O)CC2)cc1 (stereo not shown) [Example 170, 8-(2-hydroxycyclohexyl)-5-{[4-(4-methoxyphenyl)piperazin-1-yl]methyl}-9-methyl-8,9-dihydro-7H-pyrrolo[3,4-h]quinolin-7-one] and CC1c2c(cc(CN3CCN(c4ccc(F)cc4)CC3)c3cccnc23)C(=O)N1C1CCCCC1O (stereo not shown) [Example 173, 5-{[4-(4-fluorophenyl)piperazin-1-yl]methyl}-8-(2-hydroxycyclohexyl)-9-methyl-8,9-dihydro-7H-pyrrolo[3,4-h]quinolin-7-one] are the same in EC50: 100 nM for the first, 100 nM for the second.
